Test results reported in patent publication US6448034B1, “Production of variant nisin” (priority 1994, dated 2002).
Values after ≈ are worked out from the molar mass of the structure shown.

Experiments:
FI7847 [nisA-(fs)] = test: Induction by nisin / nisin variants as inducing agent; format: cell-based, L. lactis; design: Induction: unit not given here; details: for Induction: strain FI7847
Procedure: A particularly preferred embodiment of the third aspect of the invention is wherein the cells are cultured in the presence of nisA nisin or a variant nisin which can induce nisin expression. […] By adding sub-inhibitory concentrations of nisin to the growth medium, during fermentation, higher levels of the variant nisin are produced. Any variants that are less efficient as inducing agents benefit from the inclusion of nisin in the growth medium (ie a nisin induction step in the purification procedure). The amount of induction varies depending on the initial induction capacity of any particular variant (with I30W nisin A production more than doubled as a result of induction). Induction may be routinely included in the method as a means of maximising production levels. Any concerns about contamination with the wild type molecule are minimal as the nisin concentration required for induction is negligible compared to the amount of nisin variant being purified. Conveniently, the nisA nisin is a minimum amount that provides maximal induction of nisin production. This amount can be determined empirically by a person skilled in the art. Suitable nisA nisin concentrations for induction in this embodiment are from 1 nM to 500 nM, preferably 10 nM to 250 nM, more preferably 50 nM to 150 nM, most preferably 100 nM.
In some circumstances it is desirable to add nisA nisin as an inducer.

[1] = test system: Lactobacillus helveticus CH-1; details: plate diffusion bioassay; plasmid-encoded nisA gene complementing nisA deficiency in host strain FI7332; cited from earlier work
[2] = test system: sensitive L. Lactis strain MG1614; test: Minimum inhibitory concentration (MIC); format: cell-based; details: Table 5
[3] = test system: Lactobacillus helveticus CH-1; test: Plate diffusion bioassay of cell-free extracts / culture supernatants; format: cell-based; details: for Activity (% of wt): antimicrobial activity in culture supernatants of gene-replaced strains, plate diffusion bioassays; for nisin activity (% of wild type), gene replacement: functional nisA gene incorporated in the chromosome of FI7990 in place of nisA deletion
Procedure: 150 μl samples of cell free extracts from strains: 4, FI5876; 5, FI7990; 6, FI8070; 7, FI8198; 8, FI8199 were loaded into wells bored in MRS agar seeded with the indicator strains Lactobacillus helveticus CH-1. Plates were incubated overnight at 42° C. Standards included on the assay plate are: 1,50; 2,100; 3,200; 9,300; 10,400 U/ml.
Nisin activity in Lactococcal strains was assayed by both deferred and direct means. Plate diffusion bioassays were performed as previously described (Dodd et al (1992) Appl. Environ. Microbiol. 58, 3683-3693. Colonies growing on the surface of a GM17 plate were directly assayed by inverting over chloroform for 12 minutes and overlaying with agar seeded with the nisin sensitive L. lactis strain MG1614. Plates were incubated overnight and zone sizes around colonies compared with those of controls. Nisin immunity was determined by streaking cultures on a series of GM17 agar plates containing an increasing concentration of nisin and assessing the degree of growth at the different nisin levels. Control cultures (FI5876, positive) and MG1614 (negative) were included on each plate.
This corresponds to an increase of approximately 50% of nisin A levels, under the conditions used here (Table 1). This higher level of production was not found in the extracts of FI8199, producing the double mutant nisin A/Dha5A,Dha33A. […] In all cases the yield for a particular nisin variant was higher when using this gene replacement strategy than when the equivalent plasmid-encoded gene was employed in a plasmid complementation system (Table 3, Dodd et al (1992) (1993) supra).

[4] = test system: sensitive indicator strains; details: work described in WO 93/20213; cited from earlier work

Compound	Induction (FI7847 [nisA-(fs)]; inducing agent at 100 ng ml^−1)	MIC [2]	Activity (% of wt) [3]	also measured
C=C1NC(=O)[C@H]([C@@H](C)CC)NC(=O)[C@H](NC(=O)/C(=C/C)NC(=O)[C@@H](N)[C@@H](C)CC)CSC[C@@H](C(=O)N[C@H]2C(=O)N3CCC[C@H]3C(=O)NCC(=O)N[C@H](C(=O)N[C@@H](CCCCN)C(=O)N[C@H]3C(=O)NCC(=O)N[C@@H](C)C(=O)N[C@@H](CC(C)C)C(=O)N[C@@H](CCSC)C(=O)NCC(=O)N[C@H](C(=O)N[C@@H](CC(N)=O)C(=O)N[C@@H](CCSC)C(=O)N[C@@H](CCCCN)C(=O)N[C@H]4C(=O)N[C@@H](C)C(=O)N[C@H]5C(=O)N[C@@H](CS[C@H]4C)C(=O)N[C@@H](Cc4c[nH]cn4)C(=O)N[C@H](C(=O)N[C@@H](CO)C(=O)N[C@H](C(=O)N[C@@H](Cc4c[nH]cn4)C(=O)N[C@H](C(=O)N[C@@H](C)C(=O)N[C@@H](CCCCN)C(=O)O)C(C)C)[C@@H](C)CC)CS[C@H]5C)CS[C@H]3C)CS[C@H]2C)NC(=O)[C@H](CC(C)C)NC1=O [nisin A (Dha33A)]	17	250 µg/mL (≈ 74.5 µM)	150 % of wt	Induction (FI7847 [nisA-(fs)]; inducing agent at 1 mg ml^−1): 101; nisin activity (% of wild type), complementation [1]: 10 % of wild type; increase over nisin A levels ([3]; cell extract from FI8198, plate diffusion bioassay): approximately 50%; zone of inhibition / inhibitory effect compared with parent strain FI5876 ([3]; cell extracts of gene-replaced strains, plate diffusion bioassay): larger than that of the parent strain; nisin activity (% of wild type), gene replacement ([3]; plate diffusion bioassay): 150 % of wild type; antimicrobial activity against sensitive indicator strains [4]: retained their antimicrobial activity
H27W (MSTKDFNLDLVSVSKKDSGASPRITSISLCTPGCKTGALMGCNMKTATCWCSIHVSK; listed as Lactococcus sp.)			<1 % of wt	
C=C(NC(=O)[C@@H](NC(=O)[C@H](Cc1c[nH]cn1)NC(=O)[C@@H](NC(=O)[C@H](CO)NC(=O)[C@@H]1CS[C@@H](C)[C@H]2NC(=O)[C@H](C)NC(=O)[C@H](NC(=O)[C@H](CCCCN)NC(=O)[C@H](CCSC)NC(=O)[C@H](CC(N)=O)NC(=O)[C@@H]3CS[C@@H](C)[C@@H](NC(=O)[C@H](CCCCN)NC(=O)[C@@H]4CS[C@@H](C)[C@@H](NC(=O)[C@@H]5CSC[C@@H](NC(=O)/C(=C/C)NC(=O)[C@@H](N)[C@@H](C)CC)C(=O)N[C@@H]([C@@H](C)CC)C(=O)N[C@@H](C)C(=O)N[C@@H](CC(C)C)C(=O)N5)C(=O)N5CCC[C@H]5C(=O)NCC(=O)N4)C(=O)NCC(=O)N[C@@H](C)C(=O)N[C@@H](CC(C)C)C(=O)N[C@@H](CCSC)C(=O)NCC(=O)N3)[C@H](C)SC[C@H](NC2=O)C(=O)N[C@@H](Cc2c[nH]cn2)C(=O)N1)[C@@H](C)CC)C(C)C)C(=O)N[C@@H](CCCCN)C(=O)O [nisin A (Dha5A)]	114	250 µg/mL (≈ 74.5 µM)	100 % of wt	Induction (FI7847 [nisA-(fs)]; inducing agent at 1 mg ml^−1): 107; nisin activity (% of wild type), complementation [1]: 25 % of wild type; nisin activity (% of wild type), gene replacement ([3]; plate diffusion bioassay): 100 % of wild type; antimicrobial activity against sensitive indicator strains [4]: retained their antimicrobial activity
C=C(NC(=O)[C@@H](NC(=O)[C@H](Cc1c[nH]cn1)NC(=O)[C@@H](NC(=O)[C@H](CO)NC(=O)[C@@H]1CS[C@@H](C)[C@H]2NC(=O)[C@H](C)NC(=O)[C@H](NC(=O)[C@H](CCCCN)NC(=O)[C@H](CCSC)NC(=O)[C@H](CC(N)=O)NC(=O)[C@@H]3CS[C@@H](C)[C@@H](NC(=O)[C@H](CC(C)C)NC(=O)[C@@H]4CS[C@@H](C)[C@@H](NC(=O)[C@@H]5CSC[C@@H](NC(=O)/C(=C/C)NC(=O)[C@@H](N)[C@@H](C)CC)C(=O)N[C@@H]([C@@H](C)CC)C(=O)NC(=C)C(=O)N[C@@H](CC(C)C)C(=O)N5)C(=O)N5CCC[C@H]5C(=O)NCC(=O)N4)C(=O)NCC(=O)N[C@@H](C)C(=O)N[C@@H](CC(C)C)C(=O)N[C@@H](CCSC)C(=O)NCC(=O)N3)[C@H](C)SC[C@H](NC2=O)C(=O)N[C@@H](Cc2c[nH]cn2)C(=O)N1)[C@@H](C)CC)C(C)C)C(=O)N[C@@H](CCCCN)C(=O)O [K12L]	81	130 µg/mL (≈ 38.9 µM)	10 % of wt	
C=C(NC(=O)[C@@H](NC(=O)[C@H](Cc1c[nH]cn1)NC(=O)[C@H](Cc1c[nH]c2ccccc12)NC(=O)[C@H](CO)NC(=O)[C@@H]1CS[C@@H](C)[C@H]2NC(=O)[C@H](C)NC(=O)[C@H](NC(=O)[C@H](CCCCN)NC(=O)[C@H](CCSC)NC(=O)[C@H](CC(N)=O)NC(=O)[C@@H]3CS[C@@H](C)[C@@H](NC(=O)[C@H](CCCCN)NC(=O)[C@@H]4CS[C@@H](C)[C@@H](NC(=O)[C@@H]5CSC[C@@H](NC(=O)/C(=C/C)NC(=O)[C@@H](N)[C@@H](C)CC)C(=O)N[C@@H]([C@@H](C)CC)C(=O)NC(=C)C(=O)N[C@@H](CC(C)C)C(=O)N5)C(=O)N5CCC[C@H]5C(=O)NCC(=O)N4)C(=O)NCC(=O)N[C@@H](C)C(=O)N[C@@H](CC(C)C)C(=O)N[C@@H](CCSC)C(=O)NCC(=O)N3)[C@H](C)SC[C@H](NC2=O)C(=O)N[C@@H](Cc2c[nH]cn2)C(=O)N1)C(C)C)C(=O)N[C@@H](CCCCN)C(=O)O [I30W]	41	160 µg/mL (≈ 46.7 µM)	<1 % of wt	function as inducer of its own biosynthesis (FI7847 [nisA-(fs)]): does not function well as an inducer of its own biosynthesis
H31K (MSTKDFNLDLVSVSKKDSGASPRITSISLCTPGCKTGALMGCNMKTATCHCSIKVSK; listed as Lactococcus sp.)			25 % of wt	
C=C(NC(=O)[C@@H](NC(=O)[C@H](Cc1c[nH]cn1)NC(=O)[C@@H](NC(=O)[C@H](CO)NC(=O)[C@@H]1CS[C@@H](C)[C@H]2NC(=O)[C@H](C)NC(=O)[C@H](NC(=O)[C@H](CCCCN)NC(=O)[C@H](CCSC)NC(=O)[C@H](CC(N)=O)NC(=O)[C@@H]3CS[C@@H](C)[C@@H](NC(=O)[C@H](CCCCN)NC(=O)[C@@H]4CS[C@@H](C)[C@@H](NC(=O)[C@@H]5CSC[C@@H](NC(=O)/C(=C/C)NC(=O)[C@@H](N)[C@@H](C)CC)C(=O)N[C@@H]([C@@H](C)CC)C(=O)NC(=C)C(=O)N[C@@H](CC(C)C)C(=O)N5)C(=O)N5CCC[C@H]5C(=O)NCC(=O)N4)C(=O)NCC(=O)N[C@@H](C)C(=O)N[C@@H](CC(C)C)C(=O)N[C@@H](CCSC)C(=O)NCC(=O)N3)[C@H](C)SC[C@H](NC2=O)C(=O)N[C@@H](CCCCN)C(=O)N1)[C@@H](C)CC)C(C)C)C(=O)N[C@@H](CCCCN)C(=O)O [H27K]	86	130 µg/mL (≈ 38.9 µM)	100 % of wt	
H27K, H31K (MSTKDFNLDLVSVSKKDSGASPRITSISLCTPGCKTGALMGCNMKTATCKCSIKVSK; listed as Lactococcus sp.)			10 % of wt	
S5A, H27W (MSTKDFNLDLVSVSKKDSGASPRITSIALCTPGCKTGALMGCNMKTATCWCSIHVSK; listed as Lactococcus sp.)			10 % of wt	
ΔM21: variant nisin from nisA M21 deletion (SEQ. ID. No. 41), produced by strain FI8290 (MSTKDFNLDLVSVSKKDSGASPRITSISLCTPGCKTGALMGCNKTATCHCSIHVSK; listed as Lactococcus sp.)			<1 % of wt	
